According to ChEMBL document CHEMBL1145025, “Structure-activity relationship of (1-aryl-2-piperazinylethyl)piperazines: antagonists for the AGRP/melanocortin receptor binding” (J Med Chem, 2003):
Active and inactive are the calls of the source.

Tests used:
[1] = Fold selectivity for AGRP vs NDP-MSH binding was reported; Minimal Activity.
[2] = biological target: T1, Melanocortin receptor 4 (Homo sapiens, UniProt P32245); assay: In vitro ability to inhibit the binding of alpha [125I]NDP-MSH to the human Melanocortin 4 receptor
[3] = biological target: T1, Melanocortin receptor 4; assay: In vitro ability to inhibit the binding of [125I]AGRP to the human Melanocortin 4 receptor
[4] = biological target: T1, Melanocortin receptor 4; assay: Fold selectivity for AGRP vs NDP-MSH binding was reported
[5] = Fold selectivity for AGRP vs NDP-MSH binding to human MC4R was reported; Minimal activity

T1 sequence (P32245 whole entry): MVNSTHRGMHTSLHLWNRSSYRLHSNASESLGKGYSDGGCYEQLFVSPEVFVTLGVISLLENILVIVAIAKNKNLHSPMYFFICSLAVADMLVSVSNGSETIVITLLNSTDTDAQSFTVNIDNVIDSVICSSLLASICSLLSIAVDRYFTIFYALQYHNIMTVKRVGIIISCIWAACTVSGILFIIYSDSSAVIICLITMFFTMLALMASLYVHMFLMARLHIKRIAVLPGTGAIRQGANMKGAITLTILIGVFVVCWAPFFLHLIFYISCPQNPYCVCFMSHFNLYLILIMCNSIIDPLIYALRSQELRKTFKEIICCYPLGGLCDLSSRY

Compound	Selectivity [1]	IC50 [2]	IC50 [3]	Selectivity [4]	Selectivity [5]
CN1CCN(C(CN2CCN(CCC(=O)c3ccccc3)CC2)c2ccc(F)cc2)CC1 (configuration not stated)	Partially active	> 10000 nM	> 10000 nM	–	–
CC(CN1CCN(CC(c2ccc(F)cc2)N2CCN(C)CC2)CC1)C(=O)c1ccc(Cl)c(Cl)c1 (configuration not stated)	–	188 nM	364 nM	0.5	–
CC(CN1CCN(CC(c2cccc(Cl)c2)N2CCN(C)CC2)CC1)C(=O)c1ccccc1 (configuration not stated)	–	598 nM	336 nM	1.8	–
CC(CN1CCN(CC(c2ccc(Cl)cc2)N2CCN(C)CC2)CC1)C(=O)c1ccc(Cl)cc1 (configuration not stated)	–	150 nM	118 nM	0.8	–
CN1CCN(C(CN2CCN(CC3CCc4ccccc4C3=O)CC2)c2ccc(Cl)cc2)CC1 (configuration not stated)	Partially active	3230 nM	> 10000 nM	–	–
CN1CCN(C(CN2CCN(CCCc3ccccc3)CC2)c2ccc(F)cc2)CC1 (configuration not stated)	Partially active	3830 nM	> 10000 nM	–	–
COc1ccc(C(=O)C(C)CN2CCN(CC(c3ccc(F)cc3)N3CCN(C)CC3)CC2)cc1 (configuration not stated)	–	597 nM	2150 nM	0.3	–
CCN1CCN(C(CN2CCN(CC(C)C(=O)c3ccccc3)CC2)c2ccc(F)cc2)CC1 (configuration not stated)	–	193 nM	321 nM	1.6	–
CC(CN1CCN(CC(c2ccc(F)cc2)N2CCN(C)CC2)CC1)C(=O)c1ccc(C(F)(F)F)cc1 (configuration not stated)	–	469 nM	820 nM	0.5	–
CC(CN1CCN(CC(c2ccc(F)cc2)N2CCN(c3ccccc3)CC2)CC1)C(=O)c1ccccc1 (configuration not stated)	–	249 nM	2860 nM	0.1	–
CC(CN1CCN(CC(c2ccc(F)cc2)N2CCN(C)CC2)CC1)C(=O)c1ccc(Cl)cc1 (configuration not stated)	–	178 nM	266 nM	0.7	–
CC(CN1CCN(CC(c2ccccc2)N2CCN(C)CC2)CC1)C(=O)c1ccccc1 (configuration not stated)	–	> 10000 nM	> 5000 nM	–	Partially active
CC(CN1CCN(CC(c2ccc(F)cc2)N2CCN(C3CCCCC3)CC2)CC1)C(=O)c1ccccc1 (configuration not stated)	–	164 nM	152 nM	1	–
CC(CN1CCN(CC(c2ccc(F)cc2)N2CCN(C)CC2)CC1)C(=O)c1ccc([N+](=O)[O-])cc1 (configuration not stated)	–	1500 nM	588 nM	2.5	–
